Laboratory results from patent US8802686B2, “Sulfone-substituted anilinopyrimidine derivatives as CDK inhibitors, the production thereof, and use as a medicine” (Bayer Intellectual Property GmbH, priority 2008, dated 2014).
Read-outs that look alike come from different tables or passages of the source.

What was measured:
[1] = tested on: DU 145, hormone-independent human prostrate carcinoma cells; assay: Proliferation assay (Assay 5), DU145; format: cell-based; settings: DU-145, 96 h, DU145, 4 days, read-out: Concentration of the half-maximal inhibition of the cell proliferation, IC50
Excerpt: (§1) Cultivated human tumour cells (MCF7, hormone-independent human breast carcinoma cells, acquired from ATCC HTB22; NCI-H460, human non-small-cell lung carcinoma cells, ATCC HTB-177; DU 145, hormone-independent human prostrate carcinoma cells, ATCC HTB-81; HeLa-MaTu, human cervix carcinoma cells, EPO-GmbH, Berlin; HeLa-MaTu-MDR, multiple drug-resistant human cervix carcinoma cells, EPO-GmbH, Berlin; Caco-2, human colon carcinoma cells, ATCC HTB-37; B16F10, murine melanoma cell, ATCC CRL-6475) were plated out at a density of ca. 1000-5000 cells/measuring point, depending on the growth rate of the particular cells, in a 96-well multititre plate in 200 μl of the corresponding growth medium. After 24 hours, the cells of one plate (zero-point plate) were stained with crystal violet (see below), whereas the medium of the other plates was replaced with fresh culture medium (200 μl), to which the test substances had been added at different concentrations (0 μM, and in the range 0.003-3 μM; the final concentration of the solvent dimethyl sulphoxide was 0.5%). The cells were incubated for 4 days in the presence of the test substances. Cell proliferation was determined by staining the cells with crystal violet: the cells were fixed by adding 20 μl/measuring point of an 11% glutaraldehyde solution for 15 min at room temperature. After washing the fixed cells with water three times, the plates were dried at room temperature. The cells were stained by adding 100 μl/measuring point of a 0.1% crystal violet solution (pH adjusted to pH 3 by adding acetic acid). After washing the stained cells with water three times, the plates were dried at room temperature. The dye was dissolved by adding 100 μl/measuring point of a 10% acetic acid solution. The extinction was determined photometrically at a wavelength of 595 nm. […] The IC50 values were determined by means of a 4-parameter fit using the company's own software.

CDK1/CycB = CDK1/CycB (Homo sapiens (Human), UniProt P06493); assay: CDK1/CycB kinase assay (Assay 1); format: biochemical; settings: read-out: CDK1/CycB (Assay 1) Concentration of the half-maximal inhibition of the enzyme activity, IC50
Chain of CDK1/CycB (P06493 whole entry): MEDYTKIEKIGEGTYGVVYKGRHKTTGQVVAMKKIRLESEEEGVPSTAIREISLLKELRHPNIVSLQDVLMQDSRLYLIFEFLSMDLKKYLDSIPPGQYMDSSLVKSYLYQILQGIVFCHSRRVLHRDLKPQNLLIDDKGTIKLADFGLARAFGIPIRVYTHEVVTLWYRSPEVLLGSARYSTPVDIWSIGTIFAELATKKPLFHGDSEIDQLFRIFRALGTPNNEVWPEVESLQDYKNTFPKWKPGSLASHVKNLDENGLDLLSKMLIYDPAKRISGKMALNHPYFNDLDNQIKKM
Chain of CDK1/CycB (P14635 whole entry partner): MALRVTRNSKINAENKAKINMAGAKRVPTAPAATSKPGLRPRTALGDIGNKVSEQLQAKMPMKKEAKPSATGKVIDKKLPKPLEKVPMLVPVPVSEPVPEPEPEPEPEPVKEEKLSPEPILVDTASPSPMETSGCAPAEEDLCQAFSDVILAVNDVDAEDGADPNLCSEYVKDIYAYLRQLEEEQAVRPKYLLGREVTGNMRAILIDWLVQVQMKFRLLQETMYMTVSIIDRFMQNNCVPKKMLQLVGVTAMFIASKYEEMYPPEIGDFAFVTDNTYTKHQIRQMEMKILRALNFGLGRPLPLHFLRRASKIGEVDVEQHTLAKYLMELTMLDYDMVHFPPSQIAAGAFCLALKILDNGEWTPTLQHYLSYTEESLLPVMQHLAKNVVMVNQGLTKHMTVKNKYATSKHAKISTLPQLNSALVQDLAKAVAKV
Protocol: CDK1/CycB (200 ng/measuring point) was incubated for 10 min at 22° C. in the presence of different concentrations of test substances (0 and within the range 0.001-10 μM) in assay buffer [50 mM Tris/HCl pH 8.0; 10 mM MgCl2; 0.1 mM Na ortho-vanadate; 1.0 mM dithiothreitol; 0.5 μM adenosine trisphosphate (ATP); 10 μg/measuring point histone IIIS; 0.2 μCi/measuring point ^33P-gamma ATP; 0.05% NP40; 1.25% dimethyl sulphoxide]. The reaction was stopped by adding EDTA solution (250 mM; pH 8.0; 15 μl/measuring point).
From each reaction mixture, 15 μl were applied to P30 filter strips (Wallac), and unincorporated ^33P-ATP was removed by washing the filter strips three times, for 10 min in each case, in 0.5% phosphoric acid. After drying the filter strips for 1 hour at 70°, the filter strips were covered with scintillator strips (MeltiLex™ A, Wallac) and stoved for 1 hour at 90° C. The amount of incorporated ^33P (substrate phosphorylation) was determined by scintillation measurement in a gamma-radiation measuring instrument (Wallac). […] The IC50 values were determined by means of a 4-parameter fit using the company's own software.

[2] = tested on: Caco-2, human colon carcinoma cells; assay: Proliferation assay (Assay 5), Caco-2; format: cell-based; settings: 96 h, Caco-2, 4 days, read-out: Concentration of the half-maximal inhibition of the cell proliferation, IC50
Excerpt: as §1

[3] = tested on: B16F10, murine melanoma cell; assay: Proliferation assay (Assay 5), B16F10; format: cell-based; settings: Mus musculus, B16-F10, 96 h; B16F10, 4 days; read-out: Concentration of the half-maximal inhibition of the cell proliferation, IC50
Excerpt: as §1

[4] = tested on: NCI-H460, human non-small-cell lung carcinoma cells; assay: Proliferation assay (Assay 5), NCI-H460; format: cell-based; settings: 96 h, NCI-H460, 4 days, read-out: Concentration of the half-maximal inhibition of the cell proliferation, IC50
Excerpt: as §1

[5] = tested on: MCF7, hormone-independent human breast carcinoma cells; assay: Proliferation assay (Assay 5), MCF7; format: cell-based; settings: read-out: Concentration of the half-maximal inhibition of the cell proliferation, IC50
Excerpt: as §1

CDK4/CycD1 = CDK4/CycD1 (Homo sapiens (Human), UniProt P11802); assay: CDK4/CycD kinase assay (Assay 3); format: biochemical; settings: read-out: CDK4/CycD (Assay 3) Concentration of the half-maximal inhibition of the enzyme activity, IC50
Chain of CDK4/CycD1 (P11802 whole entry, the tested form may be a part): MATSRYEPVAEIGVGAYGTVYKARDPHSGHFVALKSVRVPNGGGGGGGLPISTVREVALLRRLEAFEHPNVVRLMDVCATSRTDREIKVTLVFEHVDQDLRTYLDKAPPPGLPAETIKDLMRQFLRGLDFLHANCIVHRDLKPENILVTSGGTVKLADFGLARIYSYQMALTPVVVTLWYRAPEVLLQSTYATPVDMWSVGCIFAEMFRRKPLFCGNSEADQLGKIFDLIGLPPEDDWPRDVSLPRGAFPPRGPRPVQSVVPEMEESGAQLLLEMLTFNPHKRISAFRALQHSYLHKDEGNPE
Chain of CDK4/CycD1 (P24385 whole entry partner, the tested form may be a part): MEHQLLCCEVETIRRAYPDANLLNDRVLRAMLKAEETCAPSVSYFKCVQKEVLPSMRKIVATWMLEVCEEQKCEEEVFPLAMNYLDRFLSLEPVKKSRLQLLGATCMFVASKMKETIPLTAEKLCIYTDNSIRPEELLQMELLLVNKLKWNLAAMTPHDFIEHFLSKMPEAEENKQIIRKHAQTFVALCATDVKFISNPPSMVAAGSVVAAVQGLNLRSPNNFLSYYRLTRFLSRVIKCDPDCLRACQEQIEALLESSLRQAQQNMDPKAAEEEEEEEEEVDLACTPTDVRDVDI
Protocol: Recombinant CDK4 and CycD1-GST fusion proteins, purified from baculovirus-infected insect cells (Sf9), were purchased from ProQinase GmbH, Freiburg. CDK4/CycD1 (250 ng/measuring point) was incubated for 3 hours at 22° C. in the presence of different concentrations of test substances (0 μM, and within the range 0.001-10 μM) in 31 μl of assay buffer [50 mM Hepes pH 7.0; 2.5 mM MnCl; 0.05 mM Na ortho-vanadate; 1.0 mM dithiothreitol; 0.25 μM adenosine trisphosphate (ATP); 0.5 μM biotinylated myelin basic protein (bio-MPB, GE Healthcare); 0.05 μCi/measuring point ^33P-gamma ATP; 0.005% NP40; 0.025% bovine serum albumin; 3% dimethyl sulphoxide]. The reaction was stopped by adding 50 μl of stop-mix [100 μM ATP; 10 mM EDTA pH 8.0; 0.2% Triton X100; 0.125 mg of streptavidin-SPA Beads (GE Healthcare)]. After incubation for 10 min at room temperature, the SPA beads were pelleted by centrifugation (10 min; 1500 g). The amount of incorporated ^33P (substrate phosphorylation) was determined by scintillation measurement in a beta-radiation measuring instrument (Microbeta, Perkin Elmer).

CDK2/CycE = CDK2/CycE (Homo sapiens (Human), UniProt P24941); assay: CDK2/CycE kinase assay (Assay 2); format: biochemical; settings: read-out: CDK2/CycE (Assay 2) Concentration of the half-maximal inhibition of the enzyme activity, IC50
Protocol: Recombinant CDK2 and CycE-GST fusion proteins, purified from baculovirus-infected insect cells (Sf9), were purchased from ProQinase GmbH, Freiburg. Histone IIIS, which was used as kinase substrate, was purchased from Sigma.
CDK2/CycE (50 mg/measuring point) was incubated for 10 min at 22° C. in the presence of different concentrations of test substances (0 μM, and within the range 0.001-10 μM) in assay buffer [50 mM Tris/HCl pH 8.0; 10 mM MgCl2; 0.1 mM Na ortho-vanadate; 1.0 mM dithiothreitol; 0.5 μM adenosine trisphosphate (ATP); 10 μg/measuring point histone IIIS; 0.2 μCi/measuring point ^33P-gamma ATP; 0.05% NP40; 1.25% dimethyl sulphoxide]. The reaction was stopped by adding EDTA solution (250 mM; pH 8.0; 15 μl/measuring point).
(§2) From each reaction mixture, 15 μl were applied to P30 filter strips (Wallac), and unincorporated ^33P-ATP was removed by washing the filter strips three times, for 10 min in each case, in 0.5% phosphoric acid. After drying the filter strips for 1 hour at 70° C., the filter strips were covered with scintillator strips (MeltiLex™ A, Wallac) and stoved for 1 hour at 90° C. The amount of incorporated ^33P (substrate phosphorylation) was determined by scintillation measurement in a gamma-radiation measuring instrument (Wallac). […] The IC50 values were determined by means of a 4-parameter fit using the company's own software.

[6] = biological target: VEGF receptor tyrosine kinase-2 (VEGF-R2) (Homo sapiens (Human), UniProt P35968); assay: VEGF receptor-2 kinase assay (Assay 4); format: biochemical; settings: read-out: VEGF-R2 (Assay 4) Concentration of the half-maximal inhibition of the enzyme activity, IC50
Chain of VEGF receptor tyrosine kinase-2 (VEGF-R2) (P35968 20-1356, species assumed): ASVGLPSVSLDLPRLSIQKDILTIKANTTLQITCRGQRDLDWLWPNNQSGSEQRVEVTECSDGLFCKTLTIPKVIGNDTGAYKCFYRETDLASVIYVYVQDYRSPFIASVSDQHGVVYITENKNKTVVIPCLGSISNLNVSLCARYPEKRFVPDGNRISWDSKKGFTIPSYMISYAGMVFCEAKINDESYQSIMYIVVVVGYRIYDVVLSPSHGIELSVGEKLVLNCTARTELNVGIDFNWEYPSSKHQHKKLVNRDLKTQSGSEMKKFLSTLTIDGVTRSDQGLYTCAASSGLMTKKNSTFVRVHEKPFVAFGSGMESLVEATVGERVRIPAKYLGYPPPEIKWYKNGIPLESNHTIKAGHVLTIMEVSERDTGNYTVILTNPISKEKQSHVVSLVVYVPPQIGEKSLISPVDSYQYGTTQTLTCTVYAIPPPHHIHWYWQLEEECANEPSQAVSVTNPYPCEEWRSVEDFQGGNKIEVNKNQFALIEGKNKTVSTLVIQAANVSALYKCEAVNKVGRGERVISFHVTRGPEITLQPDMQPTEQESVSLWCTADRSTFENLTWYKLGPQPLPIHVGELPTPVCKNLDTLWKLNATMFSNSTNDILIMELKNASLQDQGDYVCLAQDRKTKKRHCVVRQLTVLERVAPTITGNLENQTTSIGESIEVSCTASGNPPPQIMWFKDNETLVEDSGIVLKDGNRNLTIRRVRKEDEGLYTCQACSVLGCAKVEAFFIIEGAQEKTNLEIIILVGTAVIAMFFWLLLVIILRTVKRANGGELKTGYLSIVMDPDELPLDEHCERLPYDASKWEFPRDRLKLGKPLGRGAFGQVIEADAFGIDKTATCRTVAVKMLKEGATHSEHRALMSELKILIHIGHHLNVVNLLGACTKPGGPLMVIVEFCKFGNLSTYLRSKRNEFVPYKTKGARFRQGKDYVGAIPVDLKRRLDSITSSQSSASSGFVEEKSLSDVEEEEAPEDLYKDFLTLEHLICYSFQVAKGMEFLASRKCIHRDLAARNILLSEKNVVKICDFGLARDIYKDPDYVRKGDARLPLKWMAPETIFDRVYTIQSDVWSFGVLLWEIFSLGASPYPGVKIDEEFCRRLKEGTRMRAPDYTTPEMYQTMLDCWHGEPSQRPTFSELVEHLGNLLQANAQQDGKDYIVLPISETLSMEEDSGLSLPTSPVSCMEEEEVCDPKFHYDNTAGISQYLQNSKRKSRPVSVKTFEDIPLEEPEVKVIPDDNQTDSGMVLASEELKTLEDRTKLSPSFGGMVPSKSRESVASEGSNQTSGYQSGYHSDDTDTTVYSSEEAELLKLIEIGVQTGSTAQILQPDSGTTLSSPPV
Protocol: Recombinant VEGF receptor tyrosine kinase-2 was purified as GST fusion protein from baculovirus-infected insect cells (Sf9). Poly-(Glu4Tyr), which was used as kinase substrate, was purchased from Sigma.
VEGF receptor tyrosine kinase (90 ng/measuring point) was incubated for 10 min at 22° C. in the presence of different concentrations of test substances (0 μM, and within the range 0.001-10 μM) in 30 μl of assay buffer [40 mM Tris/HCl pH 5.5; 10 mM MgCl2; 1 mM MnCl2; 3 μM Na ortho-vanadate; 1.0 mM dithiothreitol; 8 μM adenosine trisphosphate (ATP); 0.96 μg/measuring point poly-(Glu4Tyr); 0.2 μCi/measuring point ^33P-gamma ATP; 1.4% dimethyl sulphoxide]. The reaction was stopped by adding EDTA solution (250 mM; pH 8.0; 15 μl/measuring point).
as §2

[7] = tested on: HeLa-MaTu-ADR (HeLa-MaTu-MDR, multiple drug-resistant human cervix carcinoma cells); assay: Proliferation assay (Assay 5), HeLa-MaTu-ADR; format: cell-based; settings: 96 h, HeLa-MaTu-ADR, 4 days, read-out: Concentration of the half-maximal inhibition of the cell proliferation, IC50
Excerpt: as §1

[8] = Permeability assay (Assay 6), Caco-2 monolayer; format: in vitro ADME; settings: human
Protocol: The Caco-2 monolayer is a barrier between 2 compartments. The cells here behave similarly to the small intestine cells. Active ingredients can be transported either paracellularly or transcellularly. Here, the transport takes place in most cases from apical (luminal) to basolateral (serosal). In the case of p-glycoprotein substrates, back-transport from basolateral to apical is also usually observed.
Experimental procedure: The permeability test is carried out both from apical to basolateral and also from basolateral to apical. For this, two filters are used per substance; incubation takes place over 90 min at 37° C. in a water bath. […] As reference substances, (i) PEG 4000 are used as hydrophilic marker. On account of its high molecular weight, it is unable to permeate into the cell membrane or into the pores of the tight junctions. PEG 4000 is therefore a marker of the intactness of the cell monolayer and the narrowness of the tight junctions. PEG 4000 is not absorbed in humans. (ii) Clonidine is known as completely absorbed substances in people (100%). They serve as markers for very highly permeable substances with Papp values above 100 nm/s. (iii) Digoxin is a known Pgp substrate. […] In the reverse experiment (basolateral to apical), the Papp values should be higher by a factor of about 10 as a result of the active directional transport into the apical compartment.
The permeation coefficient Papp is used to estimate the absorption in people according to the following scheme: […]

Row | Structure (SMILES) | IC50 (CDK1/CycB) | IC50 ([5]; 96 h, MCF7, 4 days) | IC50 (CDK2/CycE) | other results
1 | C[C@@H](Nc1nc(Nc2ccc(S(C)(=O)=O)cc2)ncc1C(F)(F)F)C(C)(C)O [C3, (R)-3-[2-(4-Methanesulphonylphenylamino) 5-trifluoro-methylpyrimidin-4-ylamino]-2-methylbutan-2-ol, reference compound] | 0.009 µM | 0.061 µM | 0.008 µM | IC50 [1]: 0.06 µM; IC50 [2]: 0.133 µM; IC50 [3]: 0.106 µM; IC50 [4]: 0.093 µM; IC50 (CDK4/CycD1): 0.024 µM; IC50 [6]: 0.19 µM; IC50 [7]: 0.037 µM
2 | C[C@@H](O)[C@@H](C)Oc1nc(Nc2ccc(S(=O)(=O)c3ccccc3)cc2)ncc1C(F)(F)F [Example 5, (2R,3R)-3-[2-(4-Benzenesulphonylphenylamino)-5-tri-fluoromethylpyrimidin-4-yloxy]butan-2-ol] | 0.041 µM | – | 0.036 µM | –
3 | C[C@@H](O)[C@@H](C)Oc1nc(Nc2ccc(S(=O)(=O)C(F)F)cc2)ncc1C(F)(F)F [Example 6, (2R,3R)-3-{2-[4-(Difluoromethanesulphonyl)phenylamino]-5-trifluoromethylpyrimidin-4-yloxy}butan-2-ol] | 0.024 µM | – | 0.012 µM | –
4 | C=CCS(=O)(=O)c1ccc(Nc2ncc(C(F)(F)F)c(O[C@H](C)C(C)(C)O)n2)cc1 [Example 8, (R)-2-Methyl-3-{2-[4-(prop-2-ene-1-sulphonyl)phenylamino]-5-trifluoromethylpyrimidin-4-yl-oxy}butan-2-ol] | 0.043 µM | – | 0.011 µM | –
5 | CC(C)S(=O)(=O)c1ccc(Nc2ncc(C(F)(F)F)c(O[C@H](C)[C@@H](C)O)n2)cc1 [Example 9, (2R,3R)-3-{2-[4-(Propane-2-sulphonyl)phenylamino]-5-trifluoromethylpyrimidin-4-yloxy}butan-2-ol] | 0.012 µM | – | 0.006 µM | –
6 | COC[C@@H](C)Oc1nc(Nc2ccc(S(C)(=O)=O)cc2)ncc1C(F)(F)F [Example 12, (4-Methanesulphonylphenyl) [4-((R)-2-methoxy-1-methyl-ethoxy)-5-trifluoromethylpyrimidin-2-yl]amine] | 0.051 µM | 0.191 µM | 0.012 µM | –
7 | C#CCOc1nc(Nc2ccc(S(C)(=O)=O)cc2)ncc1C(F)(F)F [Example 13, (4-Methanesulphonylphenyl)(4-prop-2-ynyloxy-5-trifluoromethylpyrimidin-2-yl)amine] | 0.13 µM | – | 0.025 µM | IC50 ([5]; MCF7, 96 h): 0.74 µM
8 | CS(=O)(=O)c1ccc(Nc2ncc(C(F)(F)F)c(OCCC(F)(F)F)n2)cc1 [Example 14, (4-Methanesulphonylphenyl)[5-trifluoromethyl-4-(3,3,3-trifluoropropoxy)pyrimidin-2-yl]amine] | 0.74 µM | – | 0.094 µM | IC50 ([5]; MCF7, 96 h): 2.2 µM
9 | C=CCOc1nc(Nc2ccc(S(C)(=O)=O)cc2)ncc1C(F)(F)F [Example 15, (4-Allyloxy-5-trifluoromethylpyrimidin-2-yl)(4-methane-sulphonylphenyl)amine] | 0.28 µM | 1.5 µM | 0.049 µM | –
10 | CS(=O)(=O)c1ccc(Nc2ncc(C(F)(F)F)c(OC3CCCCC3)n2)cc1 [Example 16, (4-Cyclohexyloxy-5-trifluoromethylpyrimidin-2-yl)(4-methanesulphonylphenyl)amine] | > 1 µM | 1.4 µM | 0.48 µM | –

More lines, main results first:

Row | IC50 (CDK1/CycB) | IC50 ([5]; 96 h, MCF7, 4 days) | IC50 (CDK2/CycE) | Structure (SMILES) | other results
11 | 0.008 µM | 0.065 µM | 0.006 µM | C[C@@H](O)[C@@H](C)Nc1nc(Nc2ccc(S(=O)(=O)C3CC3)cc2)ncc1C(F)(F)F [C1, (2R,3R)-3-[2-(4-Cyclopropanesulphonylphenylamino)-5-trifluoromethylpyrimidin-4-ylamino]butan-2-ol, reference compound] | IC50 [1]: 0.046 µM; IC50 [2]: 0.063 µM; IC50 [3]: 0.078 µM; IC50 [4]: 0.037 µM; IC50 (CDK4/CycD1): 0.052 µM; IC50 [6]: 0.051 µM; IC50 [7]: 0.026 µM; efflux ratio at 90 min ([8]; Caco-2, read-out: ratio (b-a)/(a-b)): 0.8; Papp A→B at 90 min ([8]; Caco-2, 90 min, 37° C., read-out: Permeation coefficient, Papp apical-basolateral (a-b)): 20.7 ×10⁻⁶ cm/s; Papp B→A at 90 min ([8]; Caco-2, 90 min, 37° C., read-out: Permeation coefficient, Papp basolateral-apical (b-a)): 17.4 ×10⁻⁶ cm/s
12 | 0.036 µM | 0.105 µM | 0.021 µM | C[C@@H](Oc1nc(Nc2ccc(S(=O)(=O)C3CC3)cc2)ncc1C(F)(F)F)C(C)(C)O [Example 4, (R)-3-[2-(4-Cyclopropanesulphonylphenylamino)-5-tri-fluoromethylpyrimidin-4-yloxy]-2-methylbutan-2-ol] | IC50 [1]: 0.194 µM; IC50 [2]: 0.205 µM; IC50 [3]: 0.287 µM; IC50 [4]: 0.226 µM; IC50 [7]: 0.142 µM
13 | 0.023 µM | – | 0.021 µM | C[C@@H](O)[C@@H](C)Oc1nc(Nc2ccc(S(=O)(=O)C3CCCC3)cc2)ncc1C(F)(F)F [Example 7, (2R,3R)-3-[2-(4-Cyclopentanesulphonylphenylamino)-5-triluoromethylpyrimidin-4-yloxy]butan-2-ol] | –
14 | 0.082 µM | – | 0.043 µM | C#CCS(=O)(=O)c1ccc(Nc2ncc(C(F)(F)F)c(O[C@H](C)C(C)(C)O)n2)cc1 [Example 10, (R)-2-Methyl-3-{2-[4-(prop-2-yne-1-sulphonyl)phenylamino]-5-trifluoromethylpyrimidin-4-yloxy}butan-2-ol] | –
15 | 0.003 µM | – | 0.003 µM | C[C@@H](O)[C@@H](C)Oc1nc(Nc2ccc(S(=O)(=O)CCO)cc2)ncc1C(F)(F)F [Example 11, (2R,3R)-3-{2-[4-(2-Hydroxyethanesulphonyl)phenylamino]-5-trifluoromethylpyrimidin-4-yloxy}butan-2-ol] | –
